PubChem BioAssay (NCI)
Several values for one entry are separate records, joined by “and”; a condition that tells them apart may be missing. Equal values may be shown once.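 Method: 48-hour compound exposure of cells in 96-well plates, five concentrations, linear interpolation of endpoints. TGI is the concentration that stops growth completely.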 Numbered stars: 1 amine (or outer) side, 2 acyl side, 3 side chain; on linkers, the order of the positions; unused ones are H or OH. Bridge positions count the residues as written; N and C are the ends. Square brackets hold non-standard residues; d marks the D form. Peptide text beside a SMILES is read from it. I, II: the chains in the order shown. Actinocin(1to9) = Cc1c2oc3c(C)ccc(C(=O)[*:2])c3nc-2c(C(=O)[*:1])c(N)c1=O; NMeV = CN[CH](C(=O)O)C(C)C; Sar = CNCC(=O)O

Experiments:
Assay in all cases: NCI tumour cell line growth inhibition, 48 h
TK-10 renal = tested on: TK-10 renal
SW-620 colon = tested on: SW-620 colon
MALME-3M melanoma = tested on: MALME-3M melanoma
HOP-62 NSCLC = tested on: HOP-62 NSCLC
SF-295 CNS = tested on: SF-295 CNS
RPMI-8226 leukemia = tested on: RPMI-8226 leukemia
HCC-2998 colon = tested on: HCC-2998 colon
NCI-H226 lung = tested on: NCI-H226 lung
EKVX NSCLC = tested on: EKVX NSCLC
OVCAR-4 ovarian = tested on: OVCAR-4 ovarian
SF-268 CNS = tested on: SF-268 CNS
K-562 leukemia = tested on: K-562 leukemia
MOLT-4 leukemia = tested on: MOLT-4 leukemia
UACC-62 melanoma = tested on: UACC-62 melanoma
M14 melanoma = tested on: M14 melanoma
OVCAR-5 ovarian = tested on: OVCAR-5 ovarian
HL-60(TB) leukemia = tested on: HL-60(TB) leukemia
PC-3 prostate = tested on: PC-3 prostate
MDA-N = tested on: MDA-N

Row | SMILES | TGI (TK-10 renal) | TGI (SW-620 colon) | TGI (MALME-3M melanoma) | TGI (HOP-62 NSCLC) | TGI (SF-295 CNS) | TGI (RPMI-8226 leukemia) | TGI (HCC-2998 colon) | TGI (NCI-H226 lung) | TGI (EKVX NSCLC) | TGI (OVCAR-4 ovarian) | TGI (SF-268 CNS) | TGI (K-562 leukemia) | TGI (MOLT-4 leukemia) | TGI (UACC-62 melanoma) | TGI (M14 melanoma) | TGI (OVCAR-5 ovarian) | TGI (HL-60(TB) leukemia) | TGI (PC-3 prostate) | TGI (MDA-N)
1 | Cc1ccc(C(=O)C(C)N)cc1C (stereo not given) | > 100 µM | > 100 µM | > 100 µM | > 100 µM | > 100 µM | > 100 µM | > 100 µM | > 100 µM | > 100 µM | > 100 µM | > 100 µM | > 100 µM | > 100 µM | > 100 µM | > 100 µM | – | – | – | –
2 | COc1cc2c(cc1OC)C(=O)N1CCCC1C(=O)S2 (stereo not given) | > 100 µM | > 100 µM | > 100 µM | > 100 µM | > 100 µM | > 100 µM | > 100 µM | – | > 100 µM | – | > 100 µM | > 100 µM | > 100 µM | > 100 µM | > 100 µM | > 100 µM | > 100 µM | – | –
3 | CC(=O)Oc1cc2c(n(C)c1=O)CCC2 | > 100 µM | > 100 µM | > 100 µM | > 100 µM | > 100 µM | – | > 100 µM | > 100 µM | > 100 µM | > 100 µM | > 100 µM | > 100 µM | > 100 µM | – | > 100 µM | > 100 µM | > 100 µM | > 100 µM | –
4 | NC(=O)N/N=C/c1ccccc1O | > 100 µM | > 100 µM | – | > 100 µM | > 100 µM | > 100 µM | > 100 µM | > 100 µM | > 100 µM | > 100 µM | > 100 µM | > 100 µM | > 100 µM | > 100 µM | > 100 µM | – | > 100 µM | > 100 µM | –
5 | NCCSc1nc(N)c2ncn(C3OC(CO)C(O)C3O)c2n1 (stereo not given) | > 100 µM | > 100 µM | > 100 µM | > 100 µM | > 100 µM | > 100 µM | > 100 µM | > 100 µM | – | > 100 µM | > 100 µM | > 100 µM | > 100 µM | > 100 µM | > 100 µM | > 100 µM | > 100 µM | – | –
6 | C#CC1(O)CC(c2ccccc2)N(C)C(c2ccccc2)C1 (stereo not given) | > 100 µM | > 100 µM | > 100 µM | > 100 µM | > 100 µM | – | > 100 µM | > 100 µM | > 100 µM | > 100 µM | > 100 µM | > 100 µM | > 100 µM | > 100 µM | > 100 µM | > 100 µM | > 100 µM | – | –
7 | COc1cc(OC)cc(Oc2nc3c(N)cc(C(F)(F)F)cc3nc2-c2ccccc2)c1 | > 100 µM | > 100 µM | – | > 100 µM | > 100 µM | 77.7 µM | > 100 µM | > 100 µM | > 100 µM | > 100 µM | > 100 µM | 31.4 µM | 81.1 µM | > 100 µM | > 100 µM | – | 52.4 µM | > 100 µM | –
8 | OCC1(CNc2cc(Cl)ncn2)CCC1 | > 100 µM | > 100 µM | > 100 µM | > 100 µM | > 100 µM | > 100 µM | – | > 100 µM | > 100 µM | > 100 µM | > 100 µM | > 100 µM | > 100 µM | – | – | > 100 µM | > 100 µM | > 100 µM | > 100 µM
9 | COC(=O)/C=C/N1CC1 | > 10 µM | – | > 10 µM | > 10 µM | > 10 µM | > 10 µM | > 10 µM | > 10 µM | > 10 µM | > 10 µM | > 10 µM | > 10 µM | > 10 µM | > 10 µM | > 10 µM | > 10 µM | > 10 µM | > 10 µM | –
10 | CCC(C)C1NC(=O)C(NC(=O)c2c3nc4c(C(=O)NC5C(=O)NC(C(C)C)C(=O)N6CCCC6C(=O)N(C)CC(=O)N(C)C(C(C)C)C(=O)OC5C)ccc(C)c4oc-3c(C)c(=O)c2N)C(C)OC(=O)C(C(C)C)N(C)C(=O)CN(C)C(=O)C2CCCN2C1=O (stereo not given) (I: TIP[Sar][NMeV] / II: TVP[Sar][NMeV]; ester I:1-I:C, II:1-II:C; linker I:N-II:N via Actinocin(1to9); configuration not given here) | 17.9 µM | – | 0.028 µM | – | – | 0.0323 µM | – | 0.153 µM | 0.179 µM and 0.0919 µM | 0.739 µM | – | 0.105 µM | 0.0667 µM and 0.0163 µM | – | 0.161 µM | 0.0132 µM | 0.163 µM | 0.0947 µM and 0.0301 µM | 0.0244 µM
11 | CCN1CCC(O)(/C=C/c2ccc(Cl)cc2)C(C(=O)/C=C/c2ccc(Cl)cc2)C1 (stereo not given) | > 100 µM | 56.8 µM | > 100 µM | > 100 µM | 60.3 µM | – | 32.8 µM | 43.6 µM | > 100 µM | 96 µM | > 100 µM | > 100 µM | > 100 µM | 42.2 µM | > 100 µM | > 100 µM | > 100 µM | – | –
12 | O=c1[nH]c(Br)nc2c(N3CCCCC3)c[nH]c12 | > 100 µM | > 100 µM | > 100 µM | > 100 µM | > 100 µM | > 100 µM | – | > 100 µM | > 100 µM | > 100 µM | > 100 µM | > 100 µM | > 100 µM | > 100 µM | > 100 µM | > 100 µM | > 100 µM | – | –
13 | Cc1nc2c(s/c(=N\N)n2-c2ccccc2)c(=O)n1C | > 100 µM | > 100 µM | – | – | > 100 µM | > 100 µM | > 100 µM | > 100 µM | > 100 µM | > 100 µM | > 100 µM | > 100 µM | > 100 µM | > 100 µM | > 100 µM | > 100 µM | > 100 µM | – | –
14 | O[C@H]1[C@@H]2OC[C@@H](O)[C@H](OCc3ccccc3)[C@@](COCc3ccccc3)(O2)[C@@H]1OCc1ccccc1 | 32.5 µM | 33.1 µM | 28.6 µM | 34.4 µM | 26.1 µM | 31.9 µM | – | – | 30.3 µM | 24.4 µM | 42.8 µM | 67 µM | > 100 µM | 23.5 µM | 36.3 µM | 30 µM | 68.6 µM | 28.3 µM | 29.4 µM
